In one assay the target is T1, CHK1 (Homo sapiens, UniProt O14757).
T1 construct: Dundee University (screening panel)
Put plainly: Protein kinase panel selectivity screen, CHK1. The format is biochemical. As to conditions: 1 μM compound; [ATP] 20 μM. As for the experimental part: (§1) The names of the 29 kinases comprising the selectivity screen, as well as the ATP concentrations used in each kinase case, are given in Table 5. The kinase assays were carried out as described previously.
(§2) Compound XIV at a concentration of 1 μM was screened in the 29-kinase panel (Dundee University) and the results are shown bellow in Table 6.

For the next assay, the system named is ROCK-II. Put plainly: Protein kinase panel selectivity screen, ROCK-II. As to conditions: 1 μM compound; [ATP] 20 μM. The format is biochemical. The protocol:
as §1, §2

In another assay the target is T2, CDK1/cyclin B1 (Homo sapiens, UniProt P06493).
T2 construct: His6 (N); made in house; host or cells: Sf9 insect cells (baculovirus)
Put plainly: CDK/cyclin kinase assay, CDK1/cyclin B1. The format is biochemical. As for the experimental part:
CDK4/cyclin D1, CDK1/cyclin B, CDK2/cyclin E, CDK2/cyclin A, CDK9/cyclin T1 and CDK7/cyclin H, all with a His6 tag on the N-terminus, were expressed in Sf9 insect cells using an appropriate baculovirus construct. Sf9 culture (1.6×10^6 cells/mL) was infected (MOI of 3) for two days. The cells were harvested by low speed centrifugation and the protein was purified from the insect cell pellet by metal affinity chromatography. In short: the insect cell pellet was lysed in Buffer A (10 mM Tris-HCl pH 8.0, 150 mM NaCl, 0.02% NP-40, 5 mM β-mercaptoethanol, 20 mM NaF, 1 mM Na3VO4, and Sigma Protease Inhibitor Cocktail) by sonication. The soluble fraction was cleared by centrifugation and loaded onto Ni-NTA-Agarose (Qiagen). Non-bound protein was washed off with 300 mM NaCl, 5-15 mM imidazole in buffer A and the bound protein was eluted with buffer A supplemented with 250 mM imidazole. The purified proteins were extensively dialyzed against storage buffer (20 mM HEPES pH 7.4, 50 mM NaCl, 2 mM DTT, 1 mM EDTA, 1 mM EGTA, 0.02% NP-40, 10% v/v glycerol) and stored at −70° C.
Compounds were investigated for their CDK2/cyclin E, CDK2/cyclin A, CDK1/cyclin B, and CDK4/cyclin D1 inhibitory activity. His6-tagged recombinant human cyclin-dependent kinases CDK1/cyclin B1, CDK2/cyclin E, CDK2/cyclin A, and CDK4 were expressed in sf9 insect cells using a baculovirus expression system. Recombinant cyclin D1 was expressed in E. coli. Proteins were purified by metal chelate affinity chromatography to greater than 90% homogeneity. Kinase assays were performed in 96-well plates using recombinant CDK/cyclins. Assays were performed in assay buffer (25 mM β-glycerophosphate, 20 mM MOPS, 5 mM EGTA, 1 mM DTT, 1 mM […], pH 7.4), into which were added 2-4 μg of active enzyme with appropriate substrates (purified histone H1 for CDK1 and CDK2, recombinant GST-retinoblastoma protein (residues 773-928) for CDK4). The reaction was initiated by addition of Mg/ATP mix (15 mM MgCl2+100 μM ATP with 30-50 kBq per well of [γ-^32P]-ATP) and mixtures incubated for 10-45 min, as required, at 30° C. Reactions were stopped on ice, followed by filtration through p81 or GF/C filterplates (for CDK4) (Whatman Polyfiltronics, Kent, UK). After washing 3 times with 75 mM aq orthophosphoric acid, plates were dried, scintillant added and incorporated radioactivity measured in a scintillation counter (TopCount, Packard Instruments, Pangbourne, Berks, UK). Compounds for kinase assays were made up as 10 mM stocks in DMSO and diluted into 10% DMSO in assay buffer. Data was analysed using curve-fitting software (GraphPad Prism version 3.00 for Windows, GraphPad Software, San Diego Calif. USA) to determine IC50 values (concentration of test compound which inhibits kinase activity by 50%).

A further assay deals with T3, NEK6 (Homo sapiens, UniProt Q9HC98).
T3 construct: Dundee University (screening panel)
Put plainly: Protein kinase panel selectivity screen, NEK6. The assay is classed as biochemical. As to conditions: 1 μM compound; [ATP] 50 μM. The protocol: as §1, §2

Another assay concerns the target T4, SAPK4/p38d (Homo sapiens, UniProt O15264).
T4 construct: Dundee University (panel)
The assay is described as follows: Protein kinase panel selectivity screen, SAPK4/p38d. The assay is classed as biochemical. As to conditions: 1 μM compound. The protocol: as §1, §2

For assay [1], the system named is β-catenin-LEF/TCF transcriptional activity in HEK293 cells. Put plainly: β-Catenin-LEF/TCF regulated reporter gene assay. The assay is classed as cell-based, human. The note with it: up to 10 μM. From the text: Furthermore, the effect of compound XIV on the β-catenin-dependent transcriptional activity, as measured in a luciferase based reporter gene assay, was studied.
HEK293 cells were transfected with either β-catenin-LEF/TCF-sensitive or β-catenin-LEF/TCF-insensitive reporter vector (Upstate Biotechnology, Inc.) using Lipofectamine Plus reagent (GibcoBRL) according to the manufacturer's instructions. The next day, cells were trypsinized, washed into serum-free medium, counted and seeded at 40,000 cells per well in a 96-well plate. Subsequent to cell attachment, LiCl or GSK-3 inhibitor compound were added to the medium to the required concentrations. Control cells were DMSO vehicle treated. 16 h after inhibitor addition, cells were analyzed for luciferase activity using the Steady-Glo Luciferase assay system (Promega) according to the manufacturer's instructions.
In general terms: In a reporter assay the amount or activity of a reporter protein is the signal.

In a further assay the target is T5, CSK (Homo sapiens, UniProt P41240).
T5 construct: Dundee University (screening panel)
Put plainly: Protein kinase panel selectivity screen, CSK. The note with it: 1 μM compound; [ATP] 20 μM. The assay is classed as biochemical. As for the experimental part: as §1, §2

In the next assay the test system is ZDF fa/fa rats. The assay is described as follows: Oral glucose tolerance test (OGTT). The format is in vivo, rat. The note with it: 5 mg/kg i.v. at −270 and −30 min, 2 g/kg oral glucose. The protocol:
Test compound was administrated in 10-11 weeks old ZDF rats at 5 mg/kg i.v. at −270 and −30 min. At 0 min 2 g/kg oral glucose load was given and blood samples were collected at 15 min intervals to determine the blood glucose levels.
For the OGTT male ZDF fa/fa rats (Charles River, USA), 10-11 weeks old, were used. After 15 h fasting the animals were dosed intravenously with 5 mg/kg test compound in dosing vehicle, or with dosing vehicle (10% DMSO, 90% PEG-400) only at −270 and −30 min. At 0 min the rats were given 2 g/kg glucose by oral gavage. Plasma samples were taken before and every 15 min after the OGTT for determination of blood glucose.

In the next assay the target is T6, MKK1 (Homo sapiens, UniProt Q02750).
T6 construct: Dundee University (panel)
The assay is described as follows: Protein kinase panel selectivity screen, MKK1. The assay is classed as biochemical. The note with it: 1 μM compound; [ATP] 5 μM. As for the experimental part:
as §1, §2

The next assay deals with T7, SAPK2b/p38b2 (Homo sapiens, UniProt Q15759).
T7 construct: Dundee University (panel)
The assay is described as follows: Protein kinase panel selectivity screen, SAPK2b/p38b2. The format is biochemical. As to conditions: 1 μM compound; [ATP] 20 μM. As for the experimental part: as §1, §2

In another assay the target is T8, PHK (Oryctolagus cuniculus, UniProt P00518).
T8 construct: Dundee University (screening panel)
Put plainly: Protein kinase panel selectivity screen, PHK. The format is biochemical. As to conditions: 1 μM compound; [ATP] 20 μM. As for the experimental part: as §1, §2

A further assay addresses T9, PKBdelta PH (Homo sapiens, UniProt P31749, S473D).
T9 construct: Dundee University (panel)
The assay is described as follows: Protein kinase panel selectivity screen, PKBdelta PH. The format is biochemical. The note with it: 1 μM compound; [ATP] 5 μM. The protocol:
as §1, §2

T2 sequence (P06493 whole entry): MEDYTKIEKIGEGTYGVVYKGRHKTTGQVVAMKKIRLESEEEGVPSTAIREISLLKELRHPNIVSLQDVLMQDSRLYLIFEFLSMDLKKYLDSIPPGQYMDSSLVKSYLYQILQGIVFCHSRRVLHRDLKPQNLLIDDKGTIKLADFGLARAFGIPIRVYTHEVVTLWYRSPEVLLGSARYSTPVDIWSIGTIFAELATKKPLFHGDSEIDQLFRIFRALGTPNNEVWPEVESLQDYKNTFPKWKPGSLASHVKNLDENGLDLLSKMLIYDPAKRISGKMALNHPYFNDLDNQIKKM
T2 sequence (P14635 whole entry partner): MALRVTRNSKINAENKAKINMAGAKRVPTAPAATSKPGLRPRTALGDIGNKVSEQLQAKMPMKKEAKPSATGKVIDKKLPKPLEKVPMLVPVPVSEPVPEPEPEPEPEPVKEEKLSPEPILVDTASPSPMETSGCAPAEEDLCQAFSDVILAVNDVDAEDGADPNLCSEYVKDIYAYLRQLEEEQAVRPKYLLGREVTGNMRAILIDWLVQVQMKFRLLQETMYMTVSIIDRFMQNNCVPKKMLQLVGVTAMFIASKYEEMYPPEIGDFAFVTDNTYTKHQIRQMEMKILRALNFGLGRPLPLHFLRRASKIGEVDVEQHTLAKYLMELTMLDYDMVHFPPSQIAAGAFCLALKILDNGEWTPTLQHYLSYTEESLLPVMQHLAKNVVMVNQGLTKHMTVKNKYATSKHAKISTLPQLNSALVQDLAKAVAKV
T4 sequence (O15264 whole entry): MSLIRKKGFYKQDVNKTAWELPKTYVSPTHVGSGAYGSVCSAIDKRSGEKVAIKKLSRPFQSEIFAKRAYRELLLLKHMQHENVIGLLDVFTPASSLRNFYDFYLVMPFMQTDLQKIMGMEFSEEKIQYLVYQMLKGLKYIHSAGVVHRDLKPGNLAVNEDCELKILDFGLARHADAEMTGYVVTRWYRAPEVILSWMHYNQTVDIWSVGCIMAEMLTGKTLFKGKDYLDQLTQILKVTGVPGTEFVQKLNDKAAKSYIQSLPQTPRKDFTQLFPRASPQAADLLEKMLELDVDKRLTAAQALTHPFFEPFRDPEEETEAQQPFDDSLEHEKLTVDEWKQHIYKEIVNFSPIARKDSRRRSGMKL
T6 sequence (Q02750 whole entry, species assumed): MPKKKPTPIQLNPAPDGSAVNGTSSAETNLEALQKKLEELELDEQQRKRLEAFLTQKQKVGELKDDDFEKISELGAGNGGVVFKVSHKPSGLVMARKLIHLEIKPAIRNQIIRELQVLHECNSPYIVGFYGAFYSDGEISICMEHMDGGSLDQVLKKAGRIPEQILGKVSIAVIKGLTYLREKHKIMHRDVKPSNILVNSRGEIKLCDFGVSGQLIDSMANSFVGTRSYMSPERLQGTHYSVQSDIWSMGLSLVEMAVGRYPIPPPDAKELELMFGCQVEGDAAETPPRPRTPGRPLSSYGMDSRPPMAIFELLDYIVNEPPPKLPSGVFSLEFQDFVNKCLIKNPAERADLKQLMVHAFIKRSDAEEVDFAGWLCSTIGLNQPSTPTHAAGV
T1 sequence (O14757 whole entry, species assumed): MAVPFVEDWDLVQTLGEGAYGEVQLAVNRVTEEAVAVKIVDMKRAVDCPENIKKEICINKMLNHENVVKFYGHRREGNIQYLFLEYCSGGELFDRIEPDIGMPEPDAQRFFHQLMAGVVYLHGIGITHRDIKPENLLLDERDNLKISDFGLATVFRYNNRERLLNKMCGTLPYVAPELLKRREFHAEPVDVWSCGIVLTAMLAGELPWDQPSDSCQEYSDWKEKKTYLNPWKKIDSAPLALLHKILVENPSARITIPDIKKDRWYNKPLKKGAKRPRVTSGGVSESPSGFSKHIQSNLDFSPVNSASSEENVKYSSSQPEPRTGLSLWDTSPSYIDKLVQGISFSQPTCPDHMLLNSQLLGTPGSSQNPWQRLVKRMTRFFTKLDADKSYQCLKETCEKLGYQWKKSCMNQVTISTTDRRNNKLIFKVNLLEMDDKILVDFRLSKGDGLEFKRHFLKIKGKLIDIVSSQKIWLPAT
T9 sequence (P31749 118-480 S473D limits assumed): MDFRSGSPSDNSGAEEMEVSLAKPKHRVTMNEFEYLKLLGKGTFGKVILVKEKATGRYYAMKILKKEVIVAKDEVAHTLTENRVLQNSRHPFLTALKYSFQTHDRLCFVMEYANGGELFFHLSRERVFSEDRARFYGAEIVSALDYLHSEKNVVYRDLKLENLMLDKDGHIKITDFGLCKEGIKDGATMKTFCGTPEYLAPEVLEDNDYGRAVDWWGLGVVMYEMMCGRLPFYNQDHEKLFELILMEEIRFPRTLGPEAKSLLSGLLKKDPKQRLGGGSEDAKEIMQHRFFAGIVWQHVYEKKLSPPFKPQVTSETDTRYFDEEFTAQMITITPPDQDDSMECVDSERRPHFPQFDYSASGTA
T7 sequence (Q15759 whole entry): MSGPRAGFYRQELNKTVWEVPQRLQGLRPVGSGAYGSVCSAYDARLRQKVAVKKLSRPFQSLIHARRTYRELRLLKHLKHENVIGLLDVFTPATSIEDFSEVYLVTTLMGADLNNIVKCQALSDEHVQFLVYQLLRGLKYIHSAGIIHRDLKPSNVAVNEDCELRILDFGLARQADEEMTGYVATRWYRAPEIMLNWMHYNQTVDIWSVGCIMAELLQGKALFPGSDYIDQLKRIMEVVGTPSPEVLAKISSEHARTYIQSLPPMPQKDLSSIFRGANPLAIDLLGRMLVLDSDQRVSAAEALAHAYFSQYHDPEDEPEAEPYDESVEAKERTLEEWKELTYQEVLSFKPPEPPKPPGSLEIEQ
T5 sequence (P41240 whole entry, species assumed): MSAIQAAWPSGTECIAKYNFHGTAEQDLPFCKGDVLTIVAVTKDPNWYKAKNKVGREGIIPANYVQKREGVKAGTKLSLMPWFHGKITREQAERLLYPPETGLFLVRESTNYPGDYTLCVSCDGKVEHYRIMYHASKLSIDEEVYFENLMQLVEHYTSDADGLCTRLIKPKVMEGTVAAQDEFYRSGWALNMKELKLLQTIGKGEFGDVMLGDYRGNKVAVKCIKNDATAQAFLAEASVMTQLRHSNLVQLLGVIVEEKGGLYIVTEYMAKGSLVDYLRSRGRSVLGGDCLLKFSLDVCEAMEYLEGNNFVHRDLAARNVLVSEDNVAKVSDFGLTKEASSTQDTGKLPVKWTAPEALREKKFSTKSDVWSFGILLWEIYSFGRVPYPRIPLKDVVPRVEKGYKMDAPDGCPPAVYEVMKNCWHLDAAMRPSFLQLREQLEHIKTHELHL
T3 sequence (Q9HC98 whole entry, species assumed): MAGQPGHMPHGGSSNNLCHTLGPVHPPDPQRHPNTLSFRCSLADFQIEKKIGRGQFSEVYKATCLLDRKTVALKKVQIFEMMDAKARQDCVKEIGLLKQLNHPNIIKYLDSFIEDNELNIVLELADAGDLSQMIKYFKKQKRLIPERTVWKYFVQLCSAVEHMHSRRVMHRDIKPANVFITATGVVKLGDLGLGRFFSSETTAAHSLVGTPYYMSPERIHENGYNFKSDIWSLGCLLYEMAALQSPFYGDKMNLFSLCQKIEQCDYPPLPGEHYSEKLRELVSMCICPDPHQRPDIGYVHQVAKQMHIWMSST

Turning to `Clc1ccc(Nc2nccc(-c3nccs3)n2)cn1` [Compound XIV, (6-Chloro-pyridin-3-yl)-(4-thiazol-2-yl-pyrimidin-2-yl)-amine], the activity at 1 µM on CHK1 is 78 ± 4%; on NEK6 it was 87 ± 6%; at SAPK4/p38d ([ATP] 5 μM), 91 ± 9%; on CSK it was 93 ± 8%; at MKK1, 83 ± 4%; at SAPK2b/p38b2, 92 ± 4%. Moreover, the activity at 1 µM was 120 ± 7% on PHK and 98 ± 1% at PKBdelta PH. Moreover, the “% Activity ROCK-II” value with ROCK-II was found to be 87 ± 6%. Besides, the “Fold selectivity for GSK3 over CDK1/cyclin B” value on CDK1/cyclin B1 (from Ki) is >6,250 fold. Besides, the Ki at CDK1/cyclin B1 (read-out: Ki CDK1/cyclin B) was above 100 µM. Moreover, the IC50 at CDK1/cyclin B1 (read-out: Kinase inhibition IC50 CDK1/B1) is above 100 µM. Also, the inhibition – broadly, the change of the read-out against control, counted positive when it falls – at 1 µM against SAPK4/p38d is around 40%. Besides, the “β-catenin transcriptional activity (luciferase reporter)” value in assay [1] is listed as “No induction”. In addition, in the assay on ZDF fa/fa rats, the “Decrease of absolute AUC level (blood glucose)” value is 29%. In the assay on ZDF fa/fa rats, the “Decrease of reactive AUC level (blood glucose)” value is reported as 44%. For the same compound, the Glucose tolerance result in the assay with ZDF fa/fa rats was “improved the glucose tolerance in ZDF rats significantly”.

Source of the values: patent publication US20080318954A1, “Compounds” (Cyclacel Limited, priority 2004, published 2008).
